Laboratory results as given in US5620954A, “Peptide compositions and uses therefor” (Magainin Pharmaceuticals, Inc., priority 1995, dated 1997).

What was measured:
Assay in all cases: Antibacterial assay, minimal inhibitory concentration (MIC), microtiter broth dilution
Assay type in all cases: cell-based
E.coli ATCC strain 25922 = settings: E. coli ATCC 25922; Mueller Hinton broth; 16-20 hours at 37° C.
From the text: (§1) Table I, which follows, indicates the Minimal Inhibitory Concentration (MIC) in μg/ml of Peptides (SEQ ID NO:1) through (SEQ ID NO:27 ) against S. aureus strain ATCC 25923, P. aeruginosa strain ATCC 27853, and E.coli ATCC strain 25922. (Legend) The procedure for the antibacterial assay is based upon the guidelines of the National Committee for Clinical Laboratory Standards, Document M7-T2, Volume 8, No. 8, 1988. Stock solutions of the hereinabove described peptides in accordance with the present invention are prepared at a concentration of 512 μg/ml in sterile deionized distilled water and stored at -70° C. The stock peptide solution is diluted in serial dilutions (1:2) down the wells of a microtiter plate so that the final concentrations of peptides in the wells are 0.25, 0.50, 1, 2, 4, 8, 16, 32, 64, 128, and 256 μg/ml. 1-5×10^5 CFUs/ml of either S. aureus ATCC 25923, E. coli ATCC 25922, or P. aeruginosa ATCC 27853 were added to the wells in full strength Mueller Hinton broth (BBL 11443) from a mid-log culture. The inoculum is standardized spectrophotometrically at 600 nm and is verified by colony counts. The plates are incubated for 16-20 hours at 37° C., and the minimal inhibitory concentration (MIC) for each peptide is determined. Minimal inhibitory concentration is defined as the lowest concentration of peptide which produces a clear well in the microtiter plate.

[1] = system: P. aeruginosa strain ATCC 27853; settings: P. aeruginosa ATCC 27853; Mueller Hinton broth; 16-20 hours at 37° C.
From the text: as §1

[2] = system: S. aureus strain ATCC 25923; settings: S. aureus ATCC 25923; Mueller Hinton broth; 16-20 hours at 37° C.
From the text: as §1

Substance | Minimal Inhibitory Concentration (MIC), Activity, E. coli (E.coli ATCC strain 25922) | Minimal Inhibitory Concentration (MIC), Activity, P. aeruginosa [1] | Minimal Inhibitory Concentration (MIC), Activity, S. aureus [2]
SEQ ID NO: 25: biologically active amphiphilic peptide (GFKKFLGKALKAALKIGANLLGGTPQQ) | 8,32 μg/ml | 32 µg/mL | 8,16 μg/ml
SEQ ID NO: 23: biologically active amphiphilic peptide (GFAKFLGKALKAALKIGANLLGGTPQQ) | 4,8 μg/ml | 8,16 μg/ml | 8 µg/mL
SEQ ID NO: 26: biologically active amphiphilic peptide (GLASFLGKALKAALKIGANLLGGTPQQ) | 8,16 μg/ml | 64,128 μg/ml | 16,32 μg/ml
SEQ ID NO: 24: biologically active amphiphilic peptide (GFGKFLGKALKAALKIGANLLGGTPQQ) | 8,16 μg/ml | 16 µg/mL | 8 µg/mL
SEQ ID NO: 22: biologically active amphiphilic peptide (GFGSFLGKALKAALKIGANLLGGTPQQ) | 8,16 μg/ml | 16,32 μg/ml | 16 µg/mL
SEQ ID NO: 21: biologically active amphiphilic peptide (GLASLLGKALKAALKIGANMLGGSPQQ) | 32 µg/mL | 128 µg/mL | 64 µg/mL
SEQ ID NO: 27: biologically active amphiphilic peptide (GLASLLGKALKAALKIGANLLGGTPQQ) | 32 µg/mL | 128 µg/mL | 32 µg/mL
